Source: patent US11384063B2, “Modulators of estrogen receptor proteolysis and associated methods of use” (Arvinas Operations, Inc., priority 2017, dated 2022)

Experiments:
ERα [1] = molecular target: T1, ERα (Homo sapiens, UniProt P03372); assay: Estrogen receptor-alpha (ERα) degradation assay in MCF7 cells using In-Cell Western assay; format: cell-based; design: assessed for their activity in degrading ERα in MCF-7 cells via western blot; endogenous in cells; host or cells: MCF7 cells; conditions: ER-alpha degradation in MCF7 cells, 5 days of incubation
T1 sequence (P03372 1-595): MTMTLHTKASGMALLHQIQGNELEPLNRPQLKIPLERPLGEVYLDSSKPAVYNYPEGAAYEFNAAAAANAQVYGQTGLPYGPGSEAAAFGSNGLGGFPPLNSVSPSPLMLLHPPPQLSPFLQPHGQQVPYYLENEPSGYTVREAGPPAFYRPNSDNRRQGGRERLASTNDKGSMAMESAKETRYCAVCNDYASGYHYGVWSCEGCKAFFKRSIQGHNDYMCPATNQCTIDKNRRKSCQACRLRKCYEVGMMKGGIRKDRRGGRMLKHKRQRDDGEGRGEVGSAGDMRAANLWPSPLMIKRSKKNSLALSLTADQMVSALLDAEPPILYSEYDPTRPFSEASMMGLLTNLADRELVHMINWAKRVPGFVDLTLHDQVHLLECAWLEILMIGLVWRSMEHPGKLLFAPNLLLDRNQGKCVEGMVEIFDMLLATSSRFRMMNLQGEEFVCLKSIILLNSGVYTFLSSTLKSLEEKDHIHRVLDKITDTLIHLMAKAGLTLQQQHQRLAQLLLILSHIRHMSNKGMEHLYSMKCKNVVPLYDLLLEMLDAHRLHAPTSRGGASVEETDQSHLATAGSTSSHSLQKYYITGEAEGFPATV
Description: Estrogen Receptor-Alpha (ERα) Degradation Assay Using in-Cell Western™ Assay for Table 5.
Degradation of ERα by claimed compounds were determined in MCF7 cells using an In-Cell Western™ assay. Briefly, MCF7 cells were plated in 96-well plates (2000 cells per well in 100 μl media) and incubated at 37° C. under an atmosphere of 5% CO2 in a humidified incubator overnight. One-hundred (100) μI of media containing test compound (at 2x concentration) was added to the appropriate wells to provide 11 serially decreasing concentrations (top final concentration, 1 μM then 3-fold less for the next 10 concentrations); a vehicle control (DMSO) was also added for each compound. For each experiment, all compounds were assayed on duplicate plates. Cells were then incubated for 3 or 5 days in the above-mentioned environment. The assay was terminated by removal of media, a single wash with ice-cold PBS and the addition of 50 μl paraformaldehyde (PFA: 4% in PBS). After 15 minutes in PFA at room temperature, the cells were permeabilized in Tris-phosphate-buffered saline with Tween (0.1%) (TBST) supplemented with Triton X-100 (0.5%) for 15 minutes. Cells were then blocked in BSA (TBST with BSA, 3%) for one hour. Primary antibodies for the detection of ERa (rabbit monoclonal, 1:1000, Cell Signaling Technology Catalog #8644) and tubulin (mouse monoclonal, 1:5000, Sigma Catalog #T6074) in TBST with BSA (3%) were added. The cells were incubated overnight at 4° C. The cells were then washed thrice with TBST at room temperature and then incubated with anti-rabbit and anti-mouse fluorescently-labelled secondary antibodies (IRDye®; LI-COR; Lincoln, Nebr.) in LI-COR blocking buffer (Catalog #927-50000) for one hour at room temperature. Following 3 washes with TBST, the buffer was removed and the plates were read on an Odyssey® infrared imaging system (LI-COR®, Lincoln, Nebr.) at 700 nm and 800 nm. Using commercial software (ImageStudio™; LI-COR, Lincoln, Nebr.), the staining intensity for ERa and tubulin in each well was quantified and exported for analysis. For each data point, ERa intensity was normalized to tubulin intensity and for each compound all normalized intensity values were normalized to the vehicle control. DC50 and Dmax values were determined following a 4-parameter IC50 curve fit using ACAS dose response module (McNeil & Co Inc.).

ERα [2] = molecular target: T1, ERα; assay: ERE luciferase reporter gene assay in T47D-KBluc cells (target engagement); format: cell-based; design: T47D human breast cancer cells stably transfected with estrogen responsive element/promoter/luciferase reporter gene; host or cells: T47D-KBluc cells; conditions: 10% FBS, 24 hours, Table 3 cereblon centric PROTACs, read-out: ER-α Luciferase IC50
In short: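 PROTACs were tested at 12 concentrations from 300 nM down to 2 pM in 3-fold steps for 24 h on T47D-KBluc cells with a stable ERE-driven luciferase. Medium was RPMI with 10% FBS, measured at 10 pM estrogen. IC50 came from luminescence after lysis, in duplicate.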

Compound | DC50 (ERα [1]) [nM] | Dmax (ERα [1]) [%] | IC50 (ERα [2]) [nM]
O=C1CCC(N2Cc3c(cc(F)c(N4CCN(C5CCN(CCOc6ccc(Oc7c(-c8ccc(Br)cc8)sc8cc(O)ccc78)cc6)CC5)CC4)c3F)C2=O)C(=O)N1 (stereo not shown) [Compound 205, 3-[5-[4-[1-[2-[4-[2-(4-bromophenyl)-6-hydroxybenzothiophen-3-yl]oxyphenoxy]ethyl]-4-piperidyl]piperazin-1-yl]-4,6-difluoro-1-oxo-isoindolin-2-yl]piperidine-2,6-dione] | 10 to 100 | > 75 | 3.5
O=C1CCC(N2C(=O)c3ccc(N4CC(N5CCC(Oc6ccc(Oc7c(-c8ccc(Br)cc8)sc8cc(O)ccc78)cc6)CC5)C4)cc3C2=O)C(=O)N1 (stereo not shown) [Compound 213, 5-[3-[4-[4-[2-(4-bromophenyl)-6-hydroxybenzothiophen-3-yl]oxyphenoxy]-1-pipendyl]azetidin-1-yl]2-(2,6-dioxo-3-piperidyl)isoindoline-1,3-dione] | – | < 50 | 11.2
O=C1CCC(N2C(=O)c3ccc(N4CCC(CN5CC(c6ccc(Oc7c(-c8ccc(Br)cc8)sc8cc(O)ccc78)cc6)C5)CC4)cc3C2=O)C(=O)N1 (stereo not shown) [Compound 214] | 1 to 10 | 50 to 75 | 10.4
O=C1CCC(N2Cc3cc(N4CCN(CCCCc5ccc(Oc6c(-c7ccc(Br)cc7)sc7cc(O)ccc67)cc5)CC4)ccc3C2=O)C(=O)N1 (stereo not shown) [Compound 215, 3-[5-[4-[4-[4-[2-(4-bromophenyl)-6-hydroxybenzothiophen-3-yl]oxyphenyl]butyl]piperazin-1-yl]-1-oxo-isoindolin-2-yl]piperidine-2,6-dione] | 1 to 10 | 50 to 75 | 5.3
O=C1CCC(N2Cc3cc(N4CCC(CN5CC(c6ccc(Oc7c(-c8ccc(Br)cc8)sc8cc(O)ccc78)cc6)C5)CC4)ccc3C2=O)C(=O)N1 (stereo not shown) [Compound 216, 3-[5-[4-[[3-[4-[2-[4-bromophenyl)-6-hydroxy-benzothiophen-3-yl]oxyphenyl]azetidin-1-yl]methyl]-1-piperidyl]-1-oxo-isoindolin-2-yl]piperidine-2,6-dione] | 1 to 10 | 50 to 75 | 2.7
O=C1CCC(N2Cc3cc(N4CCN(CCCOc5ccc(Oc6c(-c7ccc(OC(F)(F)F)cc7)sc7cc(O)ccc67)cc5)CC4)ccc3C2=O)C(=O)N1 (stereo not shown) [Compound 217, 3-[5-[4-[3-[4-[6-hydroxy-2-[4-(trifluoromethoxy)phenyl]benzothiophen-3-yl]oxyphenoxy]propyl]piperazin-1-yl]-1-oxo-isoindolin-2-yl]piperidine-2,6-dione] | 1 to 10 | 50 to 75 | 7.5
O=C1CCC(N2Cc3cc(N4CCN(CCCOc5ccc(Oc6c(-c7ccc(F)cc7)sc7cc(O)ccc67)cc5)CC4)ccc3C2=O)C(=O)N1 (stereo not shown) [Compound 220, 3-[5-[4-[3-[4-[2(4-fluorophenyl)-6-hydroxybenzothiophen-3-yl]oxyphenoxy]propyl]piperazin-1-yl]-1-oxo-isoindolin-2-yl]piperidine-2,6-dione] | 1 to 10 | 50 to 75 | 1.5
O=C1CCC(N2Cc3cc(N4CCN(CCCOc5ccc(Oc6c(-c7ccc(F)c(F)c7)sc7cc(O)ccc67)cc5)CC4)ccc3C2=O)C(=O)N1 (stereo not shown) [Compound 221, 3-[5-[4-[3-[4-[2-(3,4-difluorophenyl)-6-hydroxy-benzothiophen-3-yl]oxyphenoxy]propyl]piperazin-1-yl]-1-oxo-isoindolin-2-yl]piperidine-2,6-dione] | 1 to 10 | 50 to 75 | 2.4

Results, then the compound that gave them:

DC50 (ERα [1]) [nM] | Dmax (ERα [1]) [%] | IC50 (ERα [2]) [nM] | Compound
10 to 100 | > 75 | 41.1 | O=C1CCC(N2C(=O)c3ccc(N4CCN([C@H]5C[C@H](Oc6ccc(Oc7c(-c8ccc(Br)cc8)sc8cc(O)ccc78)cc6)C5)CC4)cc3C2=O)C(=O)N1 (stereo partly drawn) [Compound 223, trans-5-[4-[3-[4-[2-(4-bromophenyl)-6-hydroxy-benzothiophen-3-yl]oxyphenoxy]cyclobutyl]piperazin-1-yl]-2-(2,6-dioxo-3-piperidyl)isoindoline-1,3-dione]
1 to 10 | 50 to 75 | 7.7 | O=C1CCC(N2Cc3cc(N4CCN(C5CC(Oc6ccc(Oc7c(-c8ccc(Br)cc8)sc8cc(O)ccc78)cc6)C5)CC4)ccc3C2=O)C(=O)N1 (stereo not shown) [Compound 224, 3-[5-[4-[3-[4-[2-(4-bromophenyl)-6-hydroxy-benzothiophen-3-yl]oxyphenoxy]cyclobutyl]piperazin-1-yl]-1-oxo-isoindolin-2-yl]piperidine-2,6-dione]
– | < 50 | 4.8 | O=C1CCC(N2C(=O)c3ccc(N4CCN(CCOCc5ccc(Oc6c(-c7ccc(Br)cc7)sc7cc(O)ccc67)cc5)CC4)cc3C2=O)C(=O)N1 (stereo not shown) [Compound 225, 5-[4-[2-[[4-[2-(4-bromophenyl)-6-hydroxy-benzothiophen-3-yl]oxyphenyl]methoxy]ethyl]piperazin-1-yl]-2-(2,6-dioxo-3-piperidyl)isoindoline-1,3-dione]
1 to 10 | > 75 | 1.2 | O=C1CCC(N2Cc3cc(N4CCN(CC5CCN(c6ccc(Oc7c(-c8ccc(F)cc8)sc8cc(O)ccc78)cc6)CC5)CC4)ccc3C2=O)C(=O)N1 (stereo not shown) [Compound 226, 3-[5-[4-[[1-[4-[2-(4-fluorophenyl)-6-hydroxy-benzothiophen-3-yl]oxyphenyl]-4-piperidyl]methyl]piperazin-1-yl]-1-oxo-isoindolin-2-yl]piperidine-2,6-dione]
1 to 10 | > 75 | 7 | O=C1CCC(N2C(=O)c3ccc(N4CCN(CC5CCN(c6ccc(Oc7c(-c8ccc(F)cc8)sc8cc(O)ccc78)cc6)CC5)CC4)cc3C2=O)C(=O)N1 (stereo not shown) [Compound 227, 2-(2,6-dioxo-3-piperidyl)-5-[4-[[1-[4-[2-(4-fluorophenyl)-6-hydroxy-benzothiophen-3-yl]oxyphenyl]-4-piperidyl]methyl]piperazin-1-yl]isoindoline-1,3-dione]
1 to 10 | > 75 | 24.9 | O=C1CCC(N2C(=O)c3ccc(N4CCN(CC5CCN(c6ccc(Oc7c(-c8ccc(Br)cc8)sc8cc(O)ccc78)cc6)CC5)CC4)cc3C2=O)C(=O)N1 (stereo not shown) [Compound 228, 5-[4-[[1-[4-[2-(4-bromophenyl)-6-hydroxy-benzothiophen-3-yl]oxyphenyl]-4-pipendyl]methyl]piperazin-1-yl]-2-(2,6-dioxo-3-piperidyl)isoindoline-1,3-dione]
1 to 10 | > 75 | 1 | O=C1CCC(N2Cc3cc(N4CCN(CCC5CCN(c6ccc(Oc7c(-c8ccc(F)cc8)sc8cc(O)ccc78)cc6)CC5)CC4)ccc3C2=O)C(=O)N1 (stereo not shown) [Compound 229, 3-[5-[4-[2-[1-[4-[2-(4-fluorophenyl)-6-hydroxy-benzothiophen-3-yl]oxyphenyl]-4-piperidyl]ethyl]piperazin-1-yl]-1-oxo-isoindolin-2-yl]piperidine-2,6-dione]
